In patent US8148422B2, “Sulfonamides as TRPM8 modulators” (Janssen Pharmaceutica, NV, priority 2008, dated 2012):

Biological target: T1, canine TRPM8 (Canis lupus familiaris, UniProt Q1A7N1)
T1 construct: expressed in transfected cells
Test: In vitro canine TRPM8 functional assay (Ca2+-sensitive fluorescent dye, FLIPR or FDSS, icilin challenge)
Type: cell-based
Conditions: HEK293 cells stably expressing canine TRPM8; for inhibition at 0.2 µM: 0.2 μM compound, icilin challenge; for IC50: icilin at approx. 80% maximal response, eight-point dose-response, single determinations unless otherwise noted, read-out: IC50
Experimental: The functional activity of compounds of the formula (I) was determined by measuring changes in intracellular calcium concentration using a Ca^2+-sensitive fluorescent dye. The changes in fluorescent signal were monitored by a fluorescence plate reader, either a FLIPR™ (Molecular Devices) or FDSS (Hamamatsu).
At 24 hrs prior to assay, HEK293 cells stably expressing canine TRPM8 were seeded in culture medium in black wall, clear-base poly-D-lysine coated 384-well plates (BD Biosciences, NJ, USA) and grown overnight in 5% CO2 at 37° C. On assay day, growth media was removed and cells were loaded with Calcium 3 Dye (Molecular Devices) for 35 min at 37° C., under 5% CO2 and then for 25 min at room temperature and atmosphere. Subsequently, cells were tested for agonist-induced increases in intracellular Ca^2+ levels using FLIPR™ or FDSS. Cells were challenged with a compound of the Formula (I) (at varying concentrations) and intracellular Ca^2+ was measured for 5 min prior to the addition of icilin to all wells to achieve a final concentration that produces approximately an 80% maximal response. EC50 or IC50 values for compounds of the present invention were determined from eight-point dose-response studies. Curves were generated using the average of quadruplicate wells for each data point.

T1 sequence (Q1A7N1 1-1104): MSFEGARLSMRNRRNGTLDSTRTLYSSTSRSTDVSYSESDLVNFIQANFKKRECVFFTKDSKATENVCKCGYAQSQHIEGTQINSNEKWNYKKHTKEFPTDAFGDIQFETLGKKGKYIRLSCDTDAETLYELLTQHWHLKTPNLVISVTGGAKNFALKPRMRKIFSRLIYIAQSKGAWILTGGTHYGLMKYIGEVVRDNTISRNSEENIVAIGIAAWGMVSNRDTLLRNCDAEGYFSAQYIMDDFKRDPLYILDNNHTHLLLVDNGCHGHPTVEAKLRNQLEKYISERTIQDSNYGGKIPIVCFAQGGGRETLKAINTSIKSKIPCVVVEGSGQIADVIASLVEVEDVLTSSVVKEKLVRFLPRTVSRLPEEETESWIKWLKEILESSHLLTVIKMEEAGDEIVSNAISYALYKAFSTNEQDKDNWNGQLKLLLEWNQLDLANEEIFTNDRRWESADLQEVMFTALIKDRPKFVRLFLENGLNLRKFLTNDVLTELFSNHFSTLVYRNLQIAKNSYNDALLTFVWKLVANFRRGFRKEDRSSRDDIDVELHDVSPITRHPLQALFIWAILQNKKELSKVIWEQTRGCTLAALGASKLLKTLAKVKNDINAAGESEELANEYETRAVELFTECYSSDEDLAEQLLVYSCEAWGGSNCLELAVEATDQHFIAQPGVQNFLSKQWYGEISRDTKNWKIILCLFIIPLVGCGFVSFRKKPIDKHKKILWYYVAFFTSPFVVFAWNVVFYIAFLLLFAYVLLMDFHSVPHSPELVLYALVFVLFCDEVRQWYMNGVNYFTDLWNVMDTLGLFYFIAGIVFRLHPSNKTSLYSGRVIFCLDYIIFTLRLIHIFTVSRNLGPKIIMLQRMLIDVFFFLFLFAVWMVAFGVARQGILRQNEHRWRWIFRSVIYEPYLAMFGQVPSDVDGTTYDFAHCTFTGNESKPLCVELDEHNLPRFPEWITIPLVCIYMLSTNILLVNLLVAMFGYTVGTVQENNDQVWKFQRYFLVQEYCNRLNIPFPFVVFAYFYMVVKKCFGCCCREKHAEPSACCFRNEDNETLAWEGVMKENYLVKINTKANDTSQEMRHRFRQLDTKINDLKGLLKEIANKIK

Cc1c(N(Cc2ccc(OC(F)(F)F)cc2)S(=O)(=O)CCN2C[C@@H](C)O[C@@H](C)C2)sc2ccccc12 [Cpd 33, N-(3-Methylbenzo[b]thiophen-2-yl)-N-(4-trifluoromethoxy-benzyl)-2-(cis-2,6-dimethylmorpholin-4-yl)ethylsulfonamide]
inhibition at 0.2 µM: 100% | IC50: 24 nM

Cc1c(N(Cc2ccc(OC(F)(F)F)cc2)S(=O)(=O)CCN2CCSCC2)sc2ccccc12 [Cpd 34, N-(3-Methylbenzo[b]thiophen-2-yl)-N-(4-trifluoromethoxy-benzyl)-2-(thiomorpholin-4-yl)ethylsulfonamide]
inhibition at 0.2 µM: 100% | IC50: 7 nM

Cc1c(N(Cc2ccc(OC(F)(F)F)cc2)S(=O)(=O)CCN2CCS(=O)(=O)CC2)sc2ccccc12 [Cpd 35, N-(3-Methylbenzo[b]thiophen-2-yl)-N-(4-trifluoromethoxy-benzyl)-2-(1,1-dioxothiomorpholin-4-yl)ethylsulfonamide]
inhibition at 0.2 µM: 97% | IC50: 30 nM

Cc1c(N(Cc2ccc(OC(F)(F)F)cc2)S(=O)(=O)CCN2CCCC2)sc2ccccc12 [Cpd 36, N-(3-Methylbenzo[b]thiophen-2-yl)-N-(4-trifluoromethoxy-benzyl)-2-(pyrrolidin-1-yl)ethylsulfonamide]
inhibition at 0.2 µM: 94% | IC50: 56 nM

Cc1c(N(Cc2ccc(OC(F)(F)F)cc2)S(=O)(=O)CCN2CCCC2C)sc2ccccc12 (stereo not drawn) [Cpd 37, N-(3-Methylbenzo[b]thiophen-2-yl)-N-(4-trifluoromethoxy-benzyl)-2-(2-methylpyrrolidin-1-yl)ethylsulfonamide]
inhibition at 0.2 µM: 100% | IC50: 20 nM

Cc1c(N(Cc2ccc(OC(F)(F)F)cc2)S(=O)(=O)CCN2CCC(O)C2)sc2ccccc12 (stereo not drawn) [Cpd 38, N-(3-Methylbenzo[b]thiophen-2-yl)-N-(4-trifluoromethoxy-benzyl)-2-(3-hydroxypyrrolidin-1-yl)ethylsulfonamide]
inhibition at 0.2 µM: 99% | IC50: 30 nM

Cc1c(N(Cc2ccc(OC(F)(F)F)cc2)S(=O)(=O)CCN2CCC2)sc2ccccc12 [Cpd 39, N-(3-Methylbenzo[b]thiophen-2-yl)-N-(4-trifluoromethoxy-benzyl)-2-(azetidin-1-yl)ethylsulfonamide]
inhibition at 0.2 µM: 80% | IC50: 113 nM

Cc1c(N(Cc2ccc(OC(F)(F)F)cc2)S(=O)(=O)CCN2CCc3ccccc3C2)sc2ccccc12 [Cpd 40, N-(3-Methylbenzo[b]thiophen-2-yl)-N-(4-trifluoromethoxy-benzyl)-2-(1,2,3,4-tetrahydro-isoquinolin-2-yl)ethylsulfonamide]
inhibition at 0.2 µM: 100% | IC50: 29 nM

CCOC(=O)C1CCN(CCS(=O)(=O)N(Cc2ccc(OC(F)(F)F)cc2)c2sc3ccccc3c2C)CC1 [Cpd 41, N-(3-Methylbenzo[b]thiophen-2-yl)-N-(4-trifluoromethoxy-benzyl)-2-(4-carboethoxypiperidin-1-yl)ethylsulfonamide]
inhibition at 0.2 µM: 99% | IC50: 16 nM

Cc1c(N(Cc2ccc(OC(F)(F)F)cc2)S(=O)(=O)CCN2CCC(F)(F)CC2)sc2ccccc12 [Cpd 42, N-(3-Methylbenzo[b]thiophen-2-yl)-N-(4-trifluoromethoxy-benzyl)-2-(4,4-difluoropiperidin-1-yl)ethylsulfonamide]
inhibition at 0.2 µM: 98% | IC50: 17 nM

Cc1c(N(Cc2ccc(OC(F)(F)F)cc2)S(=O)(=O)CCN2CCCC(F)(F)C2)sc2ccccc12 [Cpd 43, N-(3-Methylbenzo[b]thiophen-2-yl)-N-(4-trifluoromethoxy-benzyl)-2-(3,3-difluoropiperidin-1-yl)ethylsulfonamide]
inhibition at 0.2 µM: 101% | IC50: 5 nM

Cc1c(N(Cc2ccc(OC(F)(F)F)cc2)S(=O)(=O)CCN2CCC(C(F)(F)F)CC2)sc2ccccc12 [Cpd 44, N-(3-Methylbenzo[b]thiophen-2-yl)-N-(4-trifluoromethoxy-benzyl)-2-(4-trifluoromethylpiperidin-1-yl)ethylsulfonamide]
inhibition at 0.2 µM: 99% | IC50: 45 nM

Cc1c(N(Cc2ccc(OC(F)(F)F)cc2)S(=O)(=O)CCN2CCC(F)(F)C2)sc2ccccc12 [Cpd 45, N-(3-Methylbenzo[b]thiophen-2-yl)-N-(4-trifluoromethoxy-benzyl)-2-(3,3-difluoropyrrolidin-1-yl)ethylsulfonamide]
inhibition at 0.2 µM: 99% | IC50: 9 nM

Cc1c(N(Cc2ccc(OC(F)(F)F)cc2)S(=O)(=O)CCN2CC(F)(F)C2)sc2ccccc12 [Cpd 46, N-(3-Methylbenzo[b]thiophen-2-yl)-N-(4-trifluoromethoxy-benzyl)-2-(3,3-ditluoroazetidin-1-yl)ethylsulfonamide]
inhibition at 0.2 µM: 101% | IC50: 4 nM

CCOC(=O)CNCCS(=O)(=O)N(Cc1ccc(OC(F)(F)F)cc1)c1sc2ccccc2c1C [Cpd 47, N-(3-Methylbenzo[b]thiophen-2-yl)-N-(4-trifluoromethoxy-benzyl)-2-[(carboethoxymethyl)amino]ethylsulfonamide]
inhibition at 0.2 µM: 83% | IC50: 51 nM

CNCCS(=O)(=O)N(Cc1ccc(OC(F)(F)F)cc1)c1sc2ccccc2c1C [Cpd 48, N-(3-Methylbenzo[b]thiophen-2-yl)-N-(4-trifluoromethoxy-benzyl)-2-(methylamino)ethylsulfonamide]
inhibition at 0.2 µM: 24%

Cc1c(N(Cc2ccc(OC(F)(F)F)cc2)S(=O)(=O)CCN(C)C)sc2ccccc12 [Cpd 49, N-(3-Methylbenzo[b]thiophen-2-yl)-N-(4-trifluoromethoxy-benzyl)-2-(dimethylamino)ethylsulfonamide]
inhibition at 0.2 µM: 65%

CCCN(CCC)CCS(=O)(=O)N(Cc1ccc(OC(F)(F)F)cc1)c1ccc2ccccc2c1 [Cpd 50, N-(Naphth-2-yl)-N-(4-trifluoromethoxy-benzyl)-2-(di-propylamino)ethylsulfonamide]
inhibition at 0.2 µM: 62%

O=S(=O)(CCN1CCOCC1)N(Cc1ccc(OC(F)(F)F)cc1)c1ccc2ccccc2c1 [Cpd 51, N-(Naphth-2-yl)-N-(4-trifluoromethoxy-benzyl)-2-(morpholin-4-yl)ethylsulfonamide]
inhibition at 0.2 µM: 87% | IC50: 28 nM

O=S(=O)(CCN1CCSCC1)N(Cc1ccc(OC(F)(F)F)cc1)c1ccc2ccccc2c1 [Cpd 52, N-(Naphth-2-yl)-N-(4-trifluoromethoxy-benzyl)-2-(thiomorpholin-4-yl)ethylsulfonamide]
inhibition at 0.2 µM: 87% | IC50: 42 nM

O=S(=O)(CCN1CCC(c2ccccc2)CC1)N(Cc1ccc(OC(F)(F)F)cc1)c1ccc2ccccc2c1 [Cpd 53, N-(Naphth-2-yl)-N-(4-trifluoromethoxy-benzyl)-2-(4-phenylpiperidin-1-yl)ethylsulfonamide]
inhibition at 0.2 µM: 58%

O=S(=O)(CCN1CCc2ccccc2C1)N(Cc1ccc(OC(F)(F)F)cc1)c1ccc2ccccc2c1 [Cpd 54, N-(Naphth-2-yl)-N-(4-trifluoromethoxy-benzyl)-2-(1,2,3,4-tetrahydroisoquinolin-2-yl)ethylsulfonamide]
inhibition at 0.2 µM: 86% | IC50: 51 nM

O=S(=O)(CCN1CC(F)(F)C1)N(Cc1ccc(OC(F)(F)F)cc1)c1ccc2ccccc2c1 [Cpd 55, N-(Naphth-2-yl)-N-(4-trifluoromethoxy-benzyl)-2-(3,3-difluoroazetidin-1-yl)ethylsulfonamide]
inhibition at 0.2 µM: 84% | IC50: 109 nM

CCCCN(CCCC)CCS(=O)(=O)N(Cc1ccc(OC(F)(F)F)cc1)c1ccc2ccccc2c1 [Cpd 56, N-(Naphth-2-yl)-N-(4-trifluoromethoxy-benzyl)-2-(dibutylamino)ethylsulfonamide]
inhibition at 0.2 µM: 47%

CN(CCS(=O)(=O)N(Cc1ccc(OC(F)(F)F)cc1)c1ccc2ccccc2c1)Cc1ccccc1 [Cpd 57, N-(Naphth-2-yl)-N-(4-trifluoromethoxy-benzyl)-2-(benzyl-methylamino)ethylsulfonamide]
inhibition at 0.2 µM: 89% | IC50: 52 nM

CC(=O)N1CCN(CCS(=O)(=O)N(Cc2ccc(OC(F)(F)F)cc2)c2ccc3ccccc3c2)CC1 [Cpd 58, N-(Naphth-2-yl)-N-(4-trifluoromethoxy-benzyl)-2-(4-acetylpiperazin-1-yl)ethylsulfonamide]
inhibition at 0.2 µM: 67%

Cc1c(N(Cc2ccc(OC(F)(F)F)cc2)S(=O)(=O)CCN(C(C)C)C(C)C)sc2ccccc12 [Cpd 59, N-(3-Methylbenzo[b]thiophen-2-yl)-N-(4-trifluoromethoxy-benzyl)-2-(di-isopropylamino)ethylsulfonamide]
inhibition at 0.2 µM: 100% | IC50: 8 nM

Cc1c(N(Cc2ccc(OC(F)(F)F)cc2)S(=O)(=O)CCNCC(F)(F)F)sc2ccccc12 [Cpd 60, N-(3-Methylbenzo[b]thiophen-2-yl)-N-(4-trifluoromethoxy-benzyl)-2-(2,2,2-trifluoroethylamino)ethylsulfonamide]
inhibition at 0.2 µM: 100% | IC50: 14 nM

CN(CCS(=O)(=O)N(Cc1ccc(OC(F)(F)F)cc1)c1sc2ccccc2c1Br)Cc1ccccc1 [Cpd 61, N-(3-Bromobenzo[b]thiophen-2-yl)-N-(4-trifluoromethoxy-benzyl)-2-(benzyl-methylamino)ethylsulfonamide]
inhibition at 0.2 µM: 102% | IC50: 28 nM

CCCCN(CCCC)CCS(=O)(=O)N(Cc1ccc(OC(F)(F)F)cc1)c1sc2ccccc2c1Br [Cpd 62, N-(3-Bromobenzo[b]thiophen-2-yl)-N-(4-trifluoromethoxy-benzyl)-2-(di-n-butylamino)ethylsulfonamide]
inhibition at 0.2 µM: 96% | IC50: 38 nM
